Publication PMC8399913, “Development of Arteannuin B Sustained-Release Microspheres for Anti-Tumor Therapy by Integrated Experimental and Molecular Modeling Approaches” (Pharmaceutics, 2021)
Like-named read-outs stand apart in the source and are kept apart here.

Experiments:
[1] = PK study in SD rats (AB plasma concentration by LC-MS); format: in vivo, Sprague-Dawley rats; settings: 3.5 mg/kg; for Cmax / half-life: Sprague-Dawley, rat, plasma
Experimental: There were 9 SD rats equally separated into three groups. The first two groups were injected with AB at a dose of 3.5 mg/kg, through different injection routes, either subcutaneous or intramuscular injections. Collect whole blood from the jugular vein of each rat one day before administration and 0, 0.08, 0.16, 0.25, 0.5, 1, 2, 4, 6, and 24 h after administration. The third group was a subcutaneous injection of ABMs with a dose of 50 mg/kg. The whole blood was collected from the jugular vein of each rat one day before the administration and 0.08, 0.25, 0.5, 1, 2, 4, 6, 24, 72, 168, and 240 h after administration. A 1.0 mL disposable syringe was used, and the blood volume was 0.2 mL each time. The whole blood sample was placed in a centrifuge tube (1.5 mL, Xinkang Medical, Taizhou, Jiang Su, China) containing 2000 KIU aprotinin and EDTA-K2 anticoagulant. Turn the centrifuge tube upside down to mix the anticoagulant with the blood thoroughly. Before centrifugation, it should be stored in a pre-cooled CoolRack module (Rack M30, Corning, NY, USA) on wet ice and centrifuged within 15 min after collection. Centrifugation was performed at 4000 rpm, 15 min, 4 °C. After centrifugation, the plasma was separated, the supernatant transferred to the label sample tube (the transfer process needs to be operated on ice), and the sample was checked and stored in the −80 °C refrigerator until analysis.
LC-MS spectrometry (TQ XS, Waters, Milford, MA, USA) was used to detect the plasma concentration of AB. The electrospray ion source (ESI+) in positive ion mode has an ion source temperature of 150 °C, a solvent removal temperature of 500 °C, and a capillary voltage of 0.5 kV. Multiple reaction monitoring (MRM) mass spectrometry parameters are: AB, m/z 249.1→189.1, cone voltage 20 V, collision voltage 10 eV; aripiprazole-D8 (internal reference), m/z 456.3→293.2, the cone voltage is 20 V, and the collision voltage is 25 eV.
SD male rat plasma 50 μL and 200 μL of precipitant (0.1% formic acid in acetonitrile, containing 0.2 ng/mL aripiprazole-D8 as an internal reference) was added into a 96-well plate, and the plate was shaken at 750 rpm (Compact Digital MicroPlate Shaker, Thermo fisher, Waltham, MA, USA) for 10 min. Next, the sample was centrifuged (Legend Micro 21R, Thermo fisher, Waltham, MA, USA) at 4200 rpm for 25 min. After centrifugation, 60 μL of the supernatant was added to a 96-well plate, and then 140 μL of pure water was added, and the plate was shaken at 750 rpm for 5 min before the sample was injected for detection.
HPLC was equipped with a C18 column (Waters, BEH, 130 Å, 2.1 × 50 mm, 1.7 μm), and the mobile phase consisted of elution A (0.1% w/v citric acid in 5%w acetonitrile aqueous solution) and elution B (0.1% w/v citric acid in 95%w acetonitrile aqueous solution) at the ratio of 70:30 v/v. The flow rate was set at 1 mL/min, and the injection volume was 10 μL. The column temperature was set at 60 °C.

[2] = tested on: A549 cells; assay: Anti-tumor cell proliferation activity (MTT method); format: cell-based, human; settings: mean ± SD, n = 3
Experimental: The human non-small cell lung cancer (NSCLC) cell line (A549) was from American Type Culture Collection (ATCC, Manassas, VA, USA). RPMI-1640 medium and fetal calf serum (FBS) were from Gibco Life Technologies (Grand Island, NY, USA). A549 cells were inoculated in RPMI 1640 medium (containing 10% FBS) in a 37 °C, 5% CO2 cell incubator for culture and storage.
A549 cells were seeded into a 96-well plate at a concentration of 5 × 10^3 per well. AB and ABMs were prepared with DMSO and a specific solvent to make the final concentration per well was 6.25, 12.5, 25, 50, and 100 μM. Here, the dosage of AB in ABMs is calculated according to the actual cumulative release amount in the solution, which is calculated as 55% in 96 h. In the experiment, the control group consisted of cells treated with DMSO and a specific solvent of ABMs and cells without any treatment. The MTT method was used to measure the optical density (OD) values of the cells at 24, 48, 72, and 96 h after treatment. The inhibition rate (IR) of each group of samples on tumor cell growth was calculated according to the following equation:(6) IR(%)=OD(solvent)−OD(exp)/OD(solvent)×100% where OD(solvent) is the mean OD of the solvent group and OD(exp) is the mean OD of the experimental group.
A dose–response curve could be obtained with different concentrations of the samples on the tumor cell growth inhibition, from which the half-inhibition concentration (IC50) of the sample can be obtained. There are five replicate holes in each group, and the average value of the five holes was taken. Three parallel experiments were carried out for each sample, and the results were expressed as mean ± standard deviation (mean ± SD). According to the inhibition rate of each group, the IC50 of AB and ABMs at each time point was calculated by the statistical software IBM SPSS Statistics 20.

[3] = tested on: HT-29, HepG2, SGC-7901, A549, K562, B16-F10, and Du145 cells; assay: Preliminary experiments: tumor cell proliferation; format: cell-based
[4] = tested on: normal human embryonic liver cells L-02; assay: Preliminary experiments: toxicity to normal cells; format: cell-based
[5] = tested on: mouse lung cancer metastasis models; assay: Preliminary experiments: mouse lung cancer metastasis models; format: in vivo
[6] = Tolerance of AB dissolved in Tween-80, ethanol and PEG-40; format: in vivo
[7] = cited from earlier work
[8] = parameters: method as in doi:10.1002/cjoc.19830010106; settings: cited from earlier work
[9] = tested on: A549 xenograft tumor; assay: In vivo anti-tumor activity, A549 xenograft tumor model; parameters: species or system BALB/c nude mice; settings: 3 mg/kg once every 3 d; after four weeks
Experimental: A549 xenograft tumor model was obtained by subcutaneously injecting 1 × 10^6 cells (A549) into BALB/c nude mice. When the average size of the tumor reached about 100 mm^3, the tumor-bearing mice were randomly divided into 6 groups (6 mice in each group). The average size of tumors was calculated according to the equation 0.5 × a × b × b (a is the length, b is the width). The 700, 350, and 175 mg/kg dose groups of the ABMs were suspended in a specific solvent and then administered subcutaneously once a week, 4 times in total. […] The vehicle (microsphere without AB) group was given once a week for a total of 4 times. The model (saline) group was given once a day as a control. Meanwhile, a group of mice without any treatment (WT group) was selected as the standard group for comparison. The changes in food intake, water consumption, and mental state of the nude mice were observed and recorded every day after administration. The body weight and tumor size of the tumor-bearing mice were measured twice a week, and the relative tumor volume (RTV) of the nude mice was calculated by Equation (7). RTV = Vt/V0(7) where Vt is the tumor volume at each measurement and V0 is the tumor volume before administration. The relative tumor growth rate T/C (%) was calculated according to the following equation to evaluate the anti-tumor activity of each group. (8) T/C(%)=TRTV/CRTV×100%

C=C1C(=O)O[C@@]23[C@H]1CC[C@@H](C)[C@@H]2CC[C@@]1(C)O[C@@H]31 [AB, Arteannuin B]
Cmax ([1]; male SD rats, IM, mean ± SEM): 74.5 ± 34.2 ng/mL | half-life ([1]; male SD rats, IM, mean ± SEM, read-out: t1/2 (converted)): 2.3 h | Cmax ([1]; male SD rats, SC, mean ± SEM): 236 ± 100 ng/mL | half-life ([1]; male SD rats, SC, mean ± SEM, read-out: t1/2 (converted)): 1.15 h | AUClast ([1]; male SD rats, IM, mean ± SEM): 0.618 ± 0.131 ng·days/mL | AUClast ([1]; male SD rats, SC, mean ± SEM): 2.538 ± 0.842 ng·days/mL | half-life ([1]; male, rats, read-out: elimination half-life (converted)): ~1 h | AUClast from subcutaneous injection relative to intramuscular injection ([1]; rats): about four times that of intramuscular injection | IC50 ([2]; 96 h (day four)): 16.2 ± 4.78 µM | IC50 ([2]; Homo sapiens, A549, 24 h, 24 h): 211 ± 63.2 µM | IC50 ([2]; Homo sapiens, A549, 48 h, 48 h): 53.1 ± 22.5 µM | IC50 ([2]; Homo sapiens, A549, 72 h, 72 h): 27.5 ± 6.71 µM | IC50 ([2]; Homo sapiens, A549, 96 h, 96 h (day four)): 16 µM | proliferation of tumor cells [3]: inhibit the proliferation | toxicity to normal cells [4]: no obvious toxicity | therapeutic effect [5]: good therapeutic effect | tolerance after administration [6]: significant intolerance symptoms | elimination half-life [7]: about 1 h | bioavailability ([7]; in animals): 19–35% | antimalarial activity [8]: no antimalarial activity

N.N.[Cl][Pt][Cl] [DDP, Cis-platinum diamine-dichloride]
tumor size (weight of dissected tumor) [9]: 0.38 ± 0.04 g
